Test results reported in ChEMBL document CHEMBL3397039, “Anti-inflammatory activity of phenolic compounds from the whole plant of Scutellaria indica” (Bioorg Med Chem Lett, 2015).

What was measured:
RAW264.7 [1] = assay: Anti-inflammatory activity in mouse RAW264.7 cells assessed as inhibition of LPS-induced nitric oxide production by Griess reaction based method; format: functional, cell-based
RAW264.7 [2] = assay: Toxicity against mouse RAW264.7 cells at 30 uM after 24 hrs in presence of LPS by MTT assay; format: cell-based; details: raw264.7, 24 h
RAW264.7 [3] = assay: Toxicity against mouse RAW264.7 cells at 30 uM after 24 hrs in absence of LPS by MTT assay; format: cell-based; details: raw264.7, 24 h
RAW264.7 [4] = assay: Inhibition of LPS-induced iNOS protein expression in mouse RAW264.7 cells by Western blotting method; format: functional, cell-based
RAW264.7 [5] = assay: Effect on alpha-tubulin protein expression in mouse RAW264.7 cells up to 30 uM by Western blotting method; format: ADME, cell-based

SMILES	IC50 (RAW264.7 [1])	Activity (RAW264.7 [2])	Activity (RAW264.7 [3])	inhibition (RAW264.7 [4])	Activity (RAW264.7 [5])
COC(=O)[C@H]1O[C@@H](Oc2cc(O)c3c(c2OC)O[C@H](c2cccc(OC)c2)CC3=O)[C@H](O)[C@@H](O)[C@@H]1O	> 30 µM	Non-toxic	Non-toxic	–	–
COC(=O)[C@H]1O[C@@H](Oc2c(O)cc(O)c3c(=O)cc(-c4ccccc4)oc23)[C@H](O)[C@@H](O)[C@@H]1O	> 30 µM	Non-toxic	Non-toxic	–	–
COc1cc(O)c2c(c1OC)O[C@H](c1cc(O)ccc1O[C@@H]1O[C@H](COC(C)=O)[C@@H](O)[C@H](O)[C@H]1O)CC2=O	> 30 µM	Non-toxic	Non-toxic	–	–
COC(=O)[C@H]1O[C@@H](Oc2ccccc2[C@@H]2CC(=O)c3c(O)cc(OC)c(OC)c3O2)[C@H](O)[C@@H](O)[C@@H]1O	> 30 µM	Non-toxic	Non-toxic	–	–
COc1cc(O)c2c(c1OC)O[C@H](c1c(O)cccc1O[C@@H]1O[C@H](CO)[C@@H](O)[C@H](O)[C@H]1O)CC2=O	> 30 µM	Non-toxic	Non-toxic	–	–
COc1ccccc1[C@@H]1CC(=O)c2c(O)cc(O[C@@H]3O[C@H](CO)[C@@H](O)[C@H](O)[C@H]3O)c(OC)c2O1	> 30 µM	Non-toxic	Non-toxic	–	–
O=c1cc(-c2ccc(O)c(O)c2)oc2cc(O)cc(O)c12 [LUTEOLIN]	7.2 µM	Non-toxic	Non-toxic	Dose-dependent effect	Non-toxic
O=C(O)[C@H]1O[C@@H](Oc2c(O)cc(O)c3c(=O)cc(-c4ccccc4)oc23)[C@H](O)[C@@H](O)[C@@H]1O	> 30 µM	Non-toxic	Non-toxic	–	–
COc1c(O)cc(O)c2c(=O)cc(-c3ccc(O)cc3)oc12 [4'-HYDROXYWOGONIN]	12.5 µM	Non-toxic	Non-toxic	–	–
COc1ccc([C@@H]2CC(=O)c3c(O)c(OC)c(OC)c(OC)c3O2)cc1	27.8 µM	Non-toxic	Non-toxic	–	–
COc1c(O[C@@H]2O[C@H](C(=O)O)[C@@H](O)[C@H](O)[C@H]2O)cc(O)c2c1O[C@H](c1ccccc1O)CC2=O	> 30 µM	Non-toxic	Non-toxic	–	–
COc1cc(O)c2c(c1OC)O[C@H](c1cc(O)ccc1O[C@@H]1O[C@H](CO)[C@@H](O)[C@H](OC(=O)c3ccc(O)cc3)[C@H]1O)CC2=O	> 30 µM	Non-toxic	Non-toxic	–	–
